Measured values: patent publication US20220357313A1, “DRUG FINGERPRINTING” (Q-STATE BIOSCIENCES, INC., priority 2021, published 2022)
Where a name gives a salt, the structure may show the parent alone.

Experiments:
neurons [1] = assay: Nearest neighbor matching of 8-dimensional drug fingerprints across the 400 compound library; format: cell-based; details: nearest neighbor query across the 400 compound library
Source text: (§1) An autoencoder reduces 518 features extracted from Optopatch measurements through an 8-dimensional bottleneck layer (the “embedding”) before attempting to expand back out and reconstruct the initial inputs. The embeddings are information-dense and (because of the preceding depth) reflect high-order representations. The autoencoder may implement a swish activation function between any layers (e.g., between the 518 and 50 dimensional layers, or between the 50 and 25 dimensional layers. Activation functions extend neural networks behavior to non-linear data. Thus the autoencoder is useful for deriving drug fingerprints with representation learning.
Over 400 compounds have been assessed in 10-point concentration response curves (CRCs) in neuronal excitability assays.
In general, the highest concentrations of the compounds are associated with the largest deviation from control. The action potential traces of FIG. 48 are shown to the autoencoder of FIG. 45, which derives for each compound an 8-dimensional fingerprint such as the two (two replicates of one compound) shown in FIG. 46. […]
GSK 3787 is a potent and selective peroxisome proliferator-activated receptor δ (PPARδ) antagonist. […] Software may read hundreds (e.g., 512) of features of action potentials fluorescently shown in the movies. […]

[2] = tested on: hiPSC-derived motor neurons; assay: Optopatch excitability recording in hiPSC-derived motor neurons, before and after compound addition; format: cell-based, human; details: 1 μM ML213; same field of view recorded before and after addition; blue light stimulus
Source text: Human induced pluripotent stem cells (hiPSC) were differentiated into hiPSC-derived motor neurons. The cells expressed an optogenetic proteins from the Optopatch toolkit (optical stimulation plus optical voltage reporting, e.g., CheRiff & QuasAr), which allows simultaneous optical stimulation and recording of neuronal action potentials.
The channelrhodopsin CheRiff enables action potential stimulation with blue light and the voltage-sensitive fluorescent protein QuasAr enables high-speed electrical recordings with red light. A microscope, as disclosed herein, obtained simultaneous voltage recordings from >100 individual neurons over a large (0.5×4 mm) field of view (FOV) with 1 ms temporal resolution and high signal-to-noise ratio (SNR). A digital micromirror device (DMD) in the microscope projected a fully reconfigurable optical pattern to sequentially stimulate individual cells while recording from many post-synaptic partners. […]
In every voltage trace the spikes were detected and the key spike shape and timing parameters were computed. […]
Pixels in the recording that captured fluorescence from the reporters of membrane potential in each neuron co-varied in time following that cell's unique firing pattern. […] Each FOV was recorded twice, before and after addition of potassium channel opener ML213. […]

[3] = tested on: E18 rat hippocampal neurons; assay: Optopatch spiking behavior of cultured rat hippocampal neurons with compounds; format: cell-based; details: for drug-induced changes in neuronal spiking behavior (radar plots): features normalized to control vehicle
Protocol: E18 rat hippocampal neurons were cultured for 14 days and caused to express Optopatch proteins as described in Example 1. The cells were stimulated in the presence of XE-991 (a Kv7.x blocker), ML-213 (a Kv7.x opener), α-Dendrotoxin (a Kv1.x blocker), OXO-M (a muscarinic agonist), 4AP (a promiscuous Kv blocker), Isradipine (a Cav1.x blocker), or a control vehicle.
FIG. 22 provides radar plots showing the drug-induced changes in neuronal spiking behavior along many dimensions, which are merely a subset of the action potential features extracted from recordings of the stimulated cells in the presence of one of the listed compounds. The action potential feature values were normalized to those for the cells simulated in the presence of the control vehicle. As shown in the radar plots, each compound provided a discernable and unique effect to the action potential features of the cell.
E18 rat hippocampal neurons were cultured for 14 days and caused to express Optopatch proteins as described in Example 1. The cells were placed in wells of a 96-well plate. ML-213 at 1 μM was added to alternating columns of the plate and a control vehicle added to the remaining columns. The cells in all wells were stimulated and their action potentials recorded using a microscope as described in Example 1.

neurons [4] = assay: Drug fingerprint activity detector in the 400 compound screen; format: cell-based; details: Retigabine positive CTL wells
Source text: To address this challenge, the invention provides a neuronal fingerprinting-based activity detector. In embodiments, the method calculates the fingerprints for each sample, then determines which fingerprints lie inside the “cloud of inertness” defined by the high-n replication of control wells. Samples that give a very low probability of being inert are then labeled as active. This technique is enabled by two assets: 1) a fitted fingerprinting algorithm, such as is described above, with which to find fingerprints and 2) control samples to populate the “cloud of inertness” at the center of the fingerprint space. The determination of the probability of inertness can be made using several computationally inexpensive techniques, including multivariate gaussian distributions and nonparametric kernel density estimation.
FIG. 59 illustrates a drug fingerprint as an activity detector, which could be used for inertness identifier as well. […] Bioactivity of compounds across varying concentrations can be automatically detected in the trained drug space. […] Throughout the 400 compound screen, activity was detected for 99.8% of the Retigabine positive CTL wells and 25.1% of experimental wells (403 compounds across 10 concentrations). For compounds where activity was detected, activity was detected for 49.5% of the wells with the highest third of doses and for 61% of the highest doses. […]

[5] = tested on: KCNQ2 R201C gain-of-function mutant line; assay: Drug fingerprint phenotype reversal in KCNQ2 R201C line; format: cell-based; details: several concentrations
Source text: as §1
For example, the potassium voltage-gated channel subfamily Q member 2 (KCNQ2) protein and gene are implicated in KCNQ2 encephalopathy, which typically presents with seizures in the first week of life. It is understood that mutation of […] at position 201 in KCNQ2 (R201C) is a gain-of-function mutation that may give rise to KCNQ2 encephalopathy. Using methods of the invention, neurons with and without the R201C mutation may be measured with optopatch and a system such as an autoencoder may create a phenotype. Each phenotype may be plotted in the 8-dimensional space by the autoencoder, which may also plot a drug fingerprint. […]

[6] = tested on: iPSC-derived excitatory cortical neurons (NGN2) with loss of function knockout (KO); assay: Optopatch action potential features in knockout disease-model iPSC-derived cortical neurons; format: cell-based, human; details: for cell behavior projected onto the phenotype/side effect space: KO cells, 8 concentrations from 0.28 to 600 μM, two replicates; for reversal of functional phenotype of disease-model cells (radar plots of action potential features): KO disease-model cells, features normalized to control cells
Protocol: In this example, iPSC-derived excitatory cortical neurons (NGN2) were grown for 30 days in a culture. The neurons expressed Optopatch proteins as described in Example 1. Two sets of neurons were grown. The first was a wildtype control line. […] The cells were stimulated using blue light as described in Example 1 and their action potentials recorded as voltage traces. Recordings were made of the control cells and disease-model cells when stimulated in the absence of any test compound. Recordings were also made of the disease-model cells when stimulated in the presence of the promiscuous potassium channel blocker 4-AP and the promiscuous sodium channel blocker lamotrigine.
FIG. 19 provides radar plots showing action potential features extracted from the recorded action potential features when stimulated by blue light. The values for the features are normalized to the control cell recordings. […] The differences in the recorded traces, select features of which are provided on the radar plots, show the functional phenotype of the disease-model in red.
FIG. 20 is a diagram illustrating phenotype reversal and “side effects” described by mapping extracted action potential features on the ˜300-dimensional space of recorded parameters, only two of which are shown. Extracted features for the control cell (WT) wells (green) are clustered as are those for the KO cells (red). The vector between these populations represents the phenotype (red). Drug effects (blue) are deconstructed into components along (phenotype reversal) and orthogonal to (side effects) the phenotype vector. An ideal drug would undo the effects of the mutation and move the well from the KO cluster to the control cell cluster.
FIG. 21 is a plot showing many wells projected onto the phenotype/side effect space. WT and KO wells are well separated along the phenotype direction. Application of the two compounds (8 concentrations from 0.28 to 600 μM) from FIG. 25 have increasing effects on KO cell behavior as the concentration increases. […] The connected drug points are in order of increasing concentration, and the two lines are experimental replicates on two consecutive weeks of experiment.

Structure (SMILES)	drug-induced changes in neuronal spiking behavior (radar plots) [3]	cell behavior projected onto the phenotype/side effect space [6]	reversal of functional phenotype of disease-model cells (radar plots of action potential features) [6]	further results
Cc1cc(C)c(NC(=O)C2CC3CCC2C3)c(C)c1 (centres unmarked) [ML213]	drove cellular response, as expected	–	–	drug fingerprint similarity to query compound ICA-27243 (neurons [1]): highly similar drug fingerprints; neuronal excitability [2]: clear reduction in neuronal excitability; average firing rate during the blue light stimulus ramp ([3]; ML-213 at 1 μM versus vehicle, 96-well plate): dramatically reduces firing rate
CCOC(=O)Nc1ccc(NCc2ccc(F)cc2)cc1N [Retigabine]	–	–	–	wells in which activity was detected (neurons [4]): 99.8%
O=C1N(c2ccccc2)c2ccccc2C1(Cc1ccncc1)Cc1ccncc1 [Linopirdine hydrochloride]	–	–	–	reversal of KCNQ2 R201C gain-of-function phenotype in 8-dimensional drug fingerprint space [5]: reverses the disease phenotype
O=C1c2ccccc2C(Cc2ccncc2)(Cc2ccncc2)c2ccccc21 [XE-991]	drove cellular response, as expected	–	–	–
Nc1ccncc1 [4-AP]	–	moves cell behavior toward and beyond WT behavior	substantially reversed the phenotype	–
Nc1nnc(-c2cccc(Cl)c2Cl)c(N)n1 [lamotrigine]	–	moves behavior away from both WT and KO	perturbed behavior but did not reverse the phenotype	–
